Measurements published in article PMC8970883, “Simultaneous Determination of Seven Phenolic Acids, Two Flavonoids, and Tussilagone in Rat Plasma after Administration of Farfarae Flos Extract by LC–MS/MS” (Evidence-based Complementary and Alternative Medicine : eCAM, 2022).

assay: Pharmacokinetic study in rats after intragastric administration of Farfarae Flos extract (plasma, LC-MS/MS); type: in vivo; conditions: male, rat, plasma, po, 3.9 g/kg, oral Farfarae Flos extract 3.9 g·kg^−1, mean ± SD
Excerpt: A high-performance liquid chromatography instrument was used to separate three types of compounds (Agilent 1200 series, USA). The HPLC instrument is composed of four parts; a G1322A degasser, G1312A Bin Pump, G1367B auto-sampler, and G1316A thermostatic column compartment. Three types of compounds and three internal standards (ISs) were separated on an Eclipse Plus C18 (4.6 × 100 mm, 1.8 μm). The mobile phase was composed of formic acid aqueous solution (A) and formic acid methanol solution (B). The concentration of formic acid in both A and B solution was 0.1% (v/v). The gradient elution was as follows. The proportion of 10% B changes to 40% from 0 min to 3mins. 40% B changes to 90% from 16 to 18 min. B is maintained at 100% from 19 to 28 min. The flow rate, sample injected volume, and column temperature was 0.35 mL·min^−1, 10 μL, and 35°C, respectively.
Quantitative analysis of all samples was performed on Sciex API 3200 with an electrospray ionization (ESI) source. Analyst 1.6.2 workstation for instrument operation, data management, and data analysis were employed to analyze and process data (AB, Sciex). Ten analyzed compounds and three ISs were optimized during multiple reactions monitoring (MRM). […] MRM parameters of CCLA were set at 353.1-191.0. […] MRM parameters of IAB were set as 515.3-353.2 and MRM parameters of IAA were set at 515.2-353.0. MRM parameters of IAC and tussilagone were set as 515.3-352.9, 391.4-217.4, respectively.
Twenty male rats (4 months old, weight 240 ± 20 g) were obtained commercially from Vital River Laboratory Animal Company (Beijing, China). Before the pharmacokinetic experiments, they were free to eat food and drink water for one week for adapting to the environment when the dark light cycle was 12 hours, while the temperature was maintained at 25 ± 5°C. The animal experiments were guided and strictly approved by Tianjin Hospital animal ethics committee. They were fasted for 12 hours and could only drink freely water before intragastric administration of Farfarae Flos extract. Ten rats in each group were employed for eliminating data variation caused by different animal individuals. All rats in groups 1 and group 2 were orally administrated one time at two dosages of Farfarae Flos extract (carboxymethyl cellulose sodium salt (0.5%) was used to suspend the extract to prepare the administration solution 3.90 g·kg^−1 and 7.80 g·kg^−1), respectively. Rats were anesthetized with ether. The heparinized 1.5 mL polythene tube was used to collect bank plasma samples before administering dose of the extract. About 250 μL plasma samples were collected at each collecting points of 5 min, 10 min, 0.25 h, 0.50 h, 0.75 h, 1 h, 2 h, 4 h, 8 h, 12 h, 24 h, and 36 h via fossa orbitalis after dosing. All plasma samples from collecting points need to be centrifuged at 4,000 rpm for ten minutes. The supernatant fluid of centrifuged plasma samples was obtained and immediately stored at −20°C in a refrigerator until they were analyzed.
The maximum concentration (Cmax) and the time to reach the maximum concentration (Tmax) of ten target compounds were directly calculated by the real concentration-time data in the plasma. The data were expressed as mean ± SD.
Ten microliters of ISs solution (contained puerarin, ferulic acid, and artemisinin) and the plasma sample (100 μL) were added into a clean tube, and then acetonitrile (400 μL) was added to precipitate protein. After centrifugation at 14000 rpm for 10 minutes, a mild nitrogen flow was used to evaporate the liquid of the supernatant to dryness. Then, the residue was dissolved in methanol (100 μL). The solution was vortexed for 3 min, mixed for 3 minutes with ultrasound, and centrifuged for 10 min. Finally, the solution (10 μL) was used to detect concentration of ten target compounds in rat plasma.

Cmax [ng/mL]	SMILES
96.3 ± 36.6	O=C(O)/C=C/c1ccc(O)c(O)c1 [Caffeic acid, caffeic acid]
47.3 ± 29.6	O=C(C=Cc1ccc(O)c(O)c1)OC1CC(O)(C(=O)O)CC(O)C1OC(=O)C=Cc1ccc(O)c(O)c1 (stereo not shown) [IAC, isochlorogenic acid C]

same assay, conditions: male, rat, plasma, po, 7.8 g/kg, oral Farfarae Flos extract 7.8 g·kg^−1, mean ± SD

Cmax [ng/mL]	SMILES
106 ± 24.4	O=C(O)/C=C/c1ccc(O)c(O)c1 [Caffeic acid, caffeic acid]
265 ± 95.5	O=C(C=Cc1ccc(O)c(O)c1)OC1CC(O)(C(=O)O)CC(O)C1OC(=O)C=Cc1ccc(O)c(O)c1 (stereo not shown) [IAC, isochlorogenic acid C]

same assay, conditions: male; rat plasma, oral Farfarae Flos extract 3.9 g·kg^−1, mean ± SD

Tmax [h]	half-life [h]	SMILES
0.23 ± 0.04	4.65 ± 4.89	O=C(O)/C=C/c1ccc(O)c(O)c1 [Caffeic acid, caffeic acid]
0.56 ± 0.25	4.25 ± 6.16	O=C(C=Cc1ccc(O)c(O)c1)OC1CC(O)(C(=O)O)CC(O)C1OC(=O)C=Cc1ccc(O)c(O)c1 (stereo not shown) [IAC, isochlorogenic acid C]

same assay, conditions: male; rat plasma, oral Farfarae Flos extract 3.9 g·kg^−1, mean ± SD; read-out: MRT(0–24h)

MRT last [h]	SMILES
6.47 ± 3.05	O=C(O)/C=C/c1ccc(O)c(O)c1 [Caffeic acid, caffeic acid]
5.79 ± 3.25	O=C(C=Cc1ccc(O)c(O)c1)OC1CC(O)(C(=O)O)CC(O)C1OC(=O)C=Cc1ccc(O)c(O)c1 (stereo not shown) [IAC, isochlorogenic acid C]

same assay, conditions: male; rat plasma, oral Farfarae Flos extract 3.9 g·kg^−1, mean ± SD; read-out: MRT(0–∞)

MRT inf [h]	SMILES
14.8 ± 8.46	O=C(O)/C=C/c1ccc(O)c(O)c1 [Caffeic acid, caffeic acid]
18.7 ± 18.6	O=C(C=Cc1ccc(O)c(O)c1)OC1CC(O)(C(=O)O)CC(O)C1OC(=O)C=Cc1ccc(O)c(O)c1 (stereo not shown) [IAC, isochlorogenic acid C]

same assay, conditions: male; rat plasma, oral Farfarae Flos extract 7.8 g·kg^−1, mean ± SD

Tmax [h]	half-life [h]	SMILES
0.21 ± 0.04	2.75 ± 2.71	O=C(O)/C=C/c1ccc(O)c(O)c1 [Caffeic acid, caffeic acid]
0.35 ± 0.21	1.37 ± 0.83	O=C(C=Cc1ccc(O)c(O)c1)OC1CC(O)(C(=O)O)CC(O)C1OC(=O)C=Cc1ccc(O)c(O)c1 (stereo not shown) [IAC, isochlorogenic acid C]

same assay, conditions: male; rat plasma, oral Farfarae Flos extract 7.8 g·kg^−1, mean ± SD; read-out: MRT(0–24h)

MRT last [h]	SMILES
4.81 ± 3.64	O=C(O)/C=C/c1ccc(O)c(O)c1 [Caffeic acid, caffeic acid]
8.8 ± 2.73	O=C(C=Cc1ccc(O)c(O)c1)OC1CC(O)(C(=O)O)CC(O)C1OC(=O)C=Cc1ccc(O)c(O)c1 (stereo not shown) [IAC, isochlorogenic acid C]

same assay, conditions: male; rat plasma, oral Farfarae Flos extract 7.8 g·kg^−1, mean ± SD; read-out: MRT(0–∞)

MRT inf [h]	SMILES
15.6 ± 10.5	O=C(O)/C=C/c1ccc(O)c(O)c1 [Caffeic acid, caffeic acid]
13.8 ± 4.86	O=C(C=Cc1ccc(O)c(O)c1)OC1CC(O)(C(=O)O)CC(O)C1OC(=O)C=Cc1ccc(O)c(O)c1 (stereo not shown) [IAC, isochlorogenic acid C]

same assay, conditions: rat plasma, oral Farfarae Flos extract 3.9 g·kg^−1, mean ± SD

AUC(0–24h) [ng/mL ∗ h]	AUC(0–∞) [ng/mL ∗ h]	SMILES
338.9 ± 246.4	691.7 ± 477.5	O=C(O)/C=C/c1ccc(O)c(O)c1 [Caffeic acid, caffeic acid]
187 ± 85.5	319.1 ± 217.3	O=C(C=Cc1ccc(O)c(O)c1)OC1CC(O)(C(=O)O)CC(O)C1OC(=O)C=Cc1ccc(O)c(O)c1 (stereo not shown) [IAC, isochlorogenic acid C]

same assay, conditions: rat plasma, oral Farfarae Flos extract 7.8 g·kg^−1, mean ± SD

AUC(0–24h) [ng/mL ∗ h]	AUC(0–∞) [ng/mL ∗ h]	SMILES
473.5 ± 273.8	723.9 ± 468.5	O=C(O)/C=C/c1ccc(O)c(O)c1 [Caffeic acid, caffeic acid]
823.4 ± 182.9	941.9 ± 204.7	O=C(C=Cc1ccc(O)c(O)c1)OC1CC(O)(C(=O)O)CC(O)C1OC(=O)C=Cc1ccc(O)c(O)c1 (stereo not shown) [IAC, isochlorogenic acid C]

assay: Stability of QC samples in rat plasma (24 h, freeze-thaw, 4 weeks); type: in vitro ADME; conditions: high concentration level (3000-30000 ng·mL^−1), 24 hours at 20°C, six replicates
Procedure: Stock solution of 10 analytical compounds (1.00 mg·mL^−1) and three internal standards (ISs) was dissolved in methanol and placed in the refrigerator before testing. Methanol was used to prepare ferulic acid (IS1), puerarin (IS2), and artemisinin (IS3) solutions to reach a concentration of 1 μg mL^−1, respectively. A specific volume of each analyte stock solution is mixed together to prepare the standard working solution containing 10 analytes with a concentration of 10 times at LLOQ and three levels (high, medium, and low). Quality control (QC) samples for methodological validation were prepared to obtain the final concentration by adding standard working solution (10 μL) into blank plasma samples (100 μL).
Four concentration levels of ICB and ICA were 4, 12, 400, and 12000 ng mL^−1, respectively. Four concentration levels of caffeic acid were 10, 30, 1000, and 30000 ng·mL^−1, respectively.
In the stability test, 24-hour stability (The samples were placed for 24 hours at 20°C and then measured), freeze-thaw cycles (The sample was injected after the temperature changing from −20°C to 20°C), and 4 weeks stability (The sample was determined after stored at −80°C for 4 weeks) of representative QC samples were all tested. All of them were assayed with six replicates.

24 h stability Remain (%)	SMILES
90.7	O=C(O)/C=C/c1ccc(O)c(O)c1 [Caffeic acid, caffeic acid]
97.6	O=C(C=Cc1ccc(O)c(O)c1)OC1CC(O)(C(=O)O)CC(O)C1OC(=O)C=Cc1ccc(O)c(O)c1 (stereo not shown) [IAC, isochlorogenic acid C]

same assay, conditions: high concentration level (3000-30000 ng·mL^−1), freeze-thaw cycles −20°C to 20°C, six replicates

Freeze-thaw stability, percent remaining [%]	SMILES
85.5	O=C(O)/C=C/c1ccc(O)c(O)c1 [Caffeic acid, caffeic acid]
93.7	O=C(C=Cc1ccc(O)c(O)c1)OC1CC(O)(C(=O)O)CC(O)C1OC(=O)C=Cc1ccc(O)c(O)c1 (stereo not shown) [IAC, isochlorogenic acid C]

same assay, conditions: high concentration level (3000-30000 ng·mL^−1), stored at −80°C for 4 weeks, six replicates

Long stability Remain (%)	SMILES
81.1	O=C(O)/C=C/c1ccc(O)c(O)c1 [Caffeic acid, caffeic acid]
106	O=C(C=Cc1ccc(O)c(O)c1)OC1CC(O)(C(=O)O)CC(O)C1OC(=O)C=Cc1ccc(O)c(O)c1 (stereo not shown) [IAC, isochlorogenic acid C]

same assay, conditions: low concentration level (3-30 ng·mL^−1), 24 hours at 20°C, six replicates

24 h stability Remain (%)	SMILES
81.1	O=C(O)/C=C/c1ccc(O)c(O)c1 [Caffeic acid, caffeic acid]
91.7	O=C(C=Cc1ccc(O)c(O)c1)OC1CC(O)(C(=O)O)CC(O)C1OC(=O)C=Cc1ccc(O)c(O)c1 (stereo not shown) [IAC, isochlorogenic acid C]

same assay, conditions: low concentration level (3-30 ng·mL^−1), freeze-thaw cycles −20°C to 20°C, six replicates

Freeze-thaw stability, percent remaining [%]	SMILES
101	O=C(O)/C=C/c1ccc(O)c(O)c1 [Caffeic acid, caffeic acid]
106	O=C(C=Cc1ccc(O)c(O)c1)OC1CC(O)(C(=O)O)CC(O)C1OC(=O)C=Cc1ccc(O)c(O)c1 (stereo not shown) [IAC, isochlorogenic acid C]

same assay, conditions: low concentration level (3-30 ng·mL^−1), stored at −80°C for 4 weeks, six replicates

Long stability Remain (%)	SMILES
113	O=C(O)/C=C/c1ccc(O)c(O)c1 [Caffeic acid, caffeic acid]
102	O=C(C=Cc1ccc(O)c(O)c1)OC1CC(O)(C(=O)O)CC(O)C1OC(=O)C=Cc1ccc(O)c(O)c1 (stereo not shown) [IAC, isochlorogenic acid C]

same assay, conditions: medium concentration level (100-1000 ng·mL^−1), 24 hours at 20°C, six replicates

24 h stability Remain (%)	SMILES
113	O=C(O)/C=C/c1ccc(O)c(O)c1 [Caffeic acid, caffeic acid]
105	O=C(C=Cc1ccc(O)c(O)c1)OC1CC(O)(C(=O)O)CC(O)C1OC(=O)C=Cc1ccc(O)c(O)c1 (stereo not shown) [IAC, isochlorogenic acid C]

same assay, conditions: medium concentration level (100-1000 ng·mL^−1), freeze-thaw cycles −20°C to 20°C, six replicates

Freeze-thaw stability, percent remaining [%]	SMILES
87.2	O=C(O)/C=C/c1ccc(O)c(O)c1 [Caffeic acid, caffeic acid]
98.6	O=C(C=Cc1ccc(O)c(O)c1)OC1CC(O)(C(=O)O)CC(O)C1OC(=O)C=Cc1ccc(O)c(O)c1 (stereo not shown) [IAC, isochlorogenic acid C]

same assay, conditions: medium concentration level (100-1000 ng·mL^−1), stored at −80°C for 4 weeks, six replicates

Long stability Remain (%)	SMILES
109	O=C(O)/C=C/c1ccc(O)c(O)c1 [Caffeic acid, caffeic acid]
108	O=C(C=Cc1ccc(O)c(O)c1)OC1CC(O)(C(=O)O)CC(O)C1OC(=O)C=Cc1ccc(O)c(O)c1 (stereo not shown) [IAC, isochlorogenic acid C]
